In one assay the test system is NCI-H460. In words: Cytotoxicity against Homo sapiens (human) NCI-H460 cells assessed as growth inhibition at 10 uM after 48 hr by coulter counter analysis. It is filed as functional. Conditions: NCI-H460, 48 h, read-out: GI.
A further assay relates to 786-0. In words: Cytotoxicity against Homo sapiens (human) 786-0 cells assessed as growth inhibition at 10 uM after 48 hr by coulter counter analysis. The following applies: 786-0, 48 h, read-out: GI. The class given is functional.
The subject of another assay is U-251. In words: Cytotoxicity against Homo sapiens (human) U251 cells assessed as growth inhibition at 10 uM after 48 hr by coulter counter analysis. It is filed as functional. The following applies: U-251, 48 h, read-out: GI.
A further assay deals with OVCAR-8. In words: Cytotoxicity against Homo sapiens (human) OVCAR8 cells assessed as growth inhibition at 10 uM after 48 hr by coulter counter analysis. The class given is functional. The following applies: OVCAR-8, 48 h, read-out: GI.
The test system of a further assay is HL-60(TB). The assay is described as follows: Cytotoxicity against Homo sapiens (human) HL-60(TB) cells assessed as growth inhibition at 10 uM after 48 hr by coulter counter analysis. The class given is functional. The following applies: HL-60, 48 h, read-out: GI.
The test system of the next assay is MOLT-4. In words: Cytotoxicity against Homo sapiens (human) MOLT4 cells assessed as growth inhibition at 10 uM after 48 hr by coulter counter analysis. It is filed as functional. The following applies: MOLT-4, 48 h, read-out: GI.
Another assay concerns HCC 2998. In words: Cytotoxicity against Homo sapiens (human) HCC2998 cells assessed as growth inhibition at 10 uM after 48 hr by coulter counter analysis. It is filed as functional. Conditions: HCC 2998, 48 h, read-out: GI.
The next assay has as its system UACC-257. The assay is described as follows: Cytotoxicity against Homo sapiens (human) UACC257 cells assessed as growth inhibition at 10 uM after 48 hr by coulter counter analysis. It is filed as functional. Conditions: UACC-257, 48 h, read-out: GI.
For a further assay, the system named is EKVX. In words: Cytotoxicity against Homo sapiens (human) EKVX cells assessed as growth inhibition at 10 uM after 48 hr by coulter counter analysis. It is filed as functional. The following applies: read-out: GI.
The subject of a further assay is Hs-578T. In words: Cytotoxicity against Homo sapiens (human) Hs578T cells assessed as growth inhibition at 10 uM after 48 hr by coulter counter analysis. The following applies: read-out: GI. The class given is functional.
The next assay has as its system NCI-H23. In words: Cytotoxicity against Homo sapiens (human) NCI-H23 cells assessed as growth inhibition at 10 uM after 48 hr by coulter counter analysis. The class given is functional. The following applies: NCI-H23, 48 h, read-out: GI.
In a further assay the test system is NCI-H226. The assay is described as follows: Cytotoxicity against Homo sapiens (human) NCI-H226 cells assessed as growth inhibition at 10 uM after 48 hr by coulter counter analysis. It is filed as functional. Conditions: NCI-H226, 48 h, read-out: GI.
Assay [1] can be described thus: Cytotoxicity against Homo sapiens (human) NCI-ADR-RES cells assessed as growth inhibition at 10 uM after 48 hr by coulter counter analysis. It is filed as functional. Conditions: read-out: GI.
Another assay concerns OVCAR-4. The assay is described as follows: Cytotoxicity against Homo sapiens (human) OVCAR4 cells assessed as growth inhibition at 10 uM after 48 hr by coulter counter analysis. It is filed as functional. Conditions: OVCAR-4, 48 h, read-out: GI.
The subject of a further assay is Malme-3M. The assay is described as follows: Cytotoxicity against Homo sapiens (human) MALME-3M cells assessed as growth inhibition at 10 uM after 48 hr by coulter counter analysis. The following applies: read-out: GI. The class given is functional.
A further assay relates to M14. The assay is described as follows: Cytotoxicity against Homo sapiens (human) M14 cells assessed as growth inhibition at 10 uM after 48 hr by coulter counter analysis. The class given is functional. The following applies: M14, 48 h, read-out: GI.
The subject of another assay is OVCAR-5. The assay is described as follows: Cytotoxicity against Homo sapiens (human) OVCAR5 cells assessed as growth inhibition at 10 uM after 48 hr by coulter counter analysis. It is filed as functional. The following applies: OVCAR-5, 48 h, read-out: GI.
A further assay deals with KM12. In words: Cytotoxicity against Homo sapiens (human) KM12 cells assessed as growth inhibition at 10 uM after 48 hr by coulter counter analysis. The class given is functional. The following applies: KM12, 48 h, read-out: GI.
Assay [2] has as its system NCI-H522. In words: Cytotoxicity against Homo sapiens (human) NCI-H522 cells assessed as growth inhibition at 10 uM after 48 hr by coulter counter analysis. It is filed as functional. Conditions: NCI-H522, 48 h, read-out: GI.
The test system of the next assay is CCRF-CEM. The assay is described as follows: Cytotoxicity against Homo sapiens (human) CCRF-CEM cells assessed as growth inhibition at 10 uM after 48 hr by coulter counter analysis. The class given is functional. The following applies: read-out: GI.
The test system of another assay is T47D. The assay is described as follows: Cytotoxicity against Homo sapiens (human) T47D cells assessed as growth inhibition at 10 uM after 48 hr by coulter counter analysis. It is filed as functional. Conditions: read-out: GI.
The test system of assay [3] is NCI-H522. In words: Cytotoxicity against Homo sapiens (human) NCI-H522 cells at 10 uM after 48 hr by coulter counter analysis. It is filed as functional, cell-based.

Activity calls are given as the source filed them. The calls are words filed in the database; no cut-off is given here. Where only a bound is given, the exact number is not on record here.

On to `O=c1c2ccccc2[nH]c(=S)n1CCc1ccccc1`, for which the inhibition of growth at 10 µM in the assay on NCI-H460 is < 10%; in the assay on 786-0, < 10%; with U-251, < 10%; in the assay on OVCAR-8 it was < 10%; in the assay with HL-60(TB) it was 11%; in the assay on MOLT-4, 23%. Besides, the inhibition of growth at 10 µM in the assay on HCC 2998 was < 10%; with UACC-257, < 10%; in the assay on EKVX, 18%; in the assay with Hs-578T it was < 10%; in the assay on NCI-H23, < 10%; in the assay on NCI-H226, < 10%. The inhibition of growth at 10 µM (in [1]; in the assay on OVCAR-4; in the assay on Malme-3M; in the assay with M14; with OVCAR-5; in the assay with KM12) was < 10% in each case. The inhibition of growth at 10 µM in the assay with NCI-H522 [2] is < 10%; in the assay on CCRF-CEM, 16%; in the assay with T47D, < 10%.
As to `O=c1c2ccccc2nc(SCc2nnc(S)n2-c2ccccc2)n1CCc1ccccc1`, the inhibition of growth at 10 µM is < 10% in the assay with NCI-H460; < 10% in the assay with 786-0; 11% in the assay with U-251; < 10% in the assay on OVCAR-8; < 10% with HCC 2998; 31% with EKVX. Besides, the inhibition of growth at 10 µM (with Hs-578T; in the assay on NCI-H23; with NCI-H226; in assay [1]; with OVCAR-4; in the assay on Malme-3M) was < 10% each time. The inhibition of growth at 10 µM in the assay on M14 is < 10%; in the assay with OVCAR-5, < 10%; with KM12 it was < 10%; in the assay with NCI-H522 [2], < 10%; in the assay on CCRF-CEM it was 28%; in the assay on T47D it was 38%.
In the case of `COc1ccc(-n2c(S)nnc2CSc2nc3ccccc3c(=O)n2CCc2ccccc2)cc1`, the inhibition of growth at 10 µM is < 10% in the assay with NCI-H460; < 10% with 786-0; 11% in the assay with U-251; < 10% in the assay with OVCAR-8; < 10% in the assay with HCC 2998; < 10% in the assay with UACC-257. The inhibition of growth at 10 µM was 31% with EKVX; < 10% with Hs-578T; < 10% with NCI-H23; < 10% with NCI-H226; < 10% in assay [1]; < 10% in the assay with OVCAR-4. Also, the inhibition of growth at 10 µM with Malme-3M is < 10%; in the assay on M14 it was < 10%; in the assay on OVCAR-5, < 10%; with KM12, < 10%; in the assay on NCI-H522 [2] it was < 10%; with CCRF-CEM, 13%. Further, the inhibition of growth at 10 µM in the assay on T47D was < 10%.
As to `CCn1c(S)nnc1CSc1nc2ccccc2c(=O)n1CCc1ccccc1`, the inhibition of growth at 10 µM with NCI-H460 was 31%; in the assay on 786-0, 19%; in the assay with U-251 it was < 10%; in the assay with OVCAR-8, 11%; in the assay on HL-60(TB) it was 30%; with MOLT-4 it was 29%. Moreover, the inhibition of growth at 10 µM in the assay on HCC 2998 was < 10%; in the assay on UACC-257 it was 12%; with EKVX, 15%; in the assay with Hs-578T, < 10%; with NCI-H23, < 10%; in the assay on NCI-H226 it was 35%. The inhibition of growth at 10 µM was 27% in [1]; 15% in the assay on OVCAR-4; < 10% in the assay with Malme-3M; 12% in the assay on M14; < 10% with OVCAR-5; < 10% in the assay with KM12. Besides, the inhibition of growth at 10 µM in the assay on CCRF-CEM and with T47D was 27% throughout. Also, the outcome in the assay on NCI-H522 [3] was Active.

The record behind these values is ChEMBL document CHEMBL3044826, “Design, synthesis and biological evaluation of some novel substituted 2-mercapto-3-phenethylquinazolines as antitumor agents” (2013).
